Results on 1 compound are retold here after patent US20160184274A1, “Methods for inhibiting mesenchymal phenotype after epithelial-to-mesenchymal transition” (Fibrostatin, S.L., priority 2014, published 2016).

The experiment has as its system 4T1 cells. As to the kind of experiment: Cell death / caspase 3 activation in 4T1 cells. It counts as cell-based, Mouse. Particulars: same T12 concentrations as for circulating 4T1 cells; FIG. 11D-E. The protocol: FIG. 11. T12 targets circulating 4T1 cancer cells. A, Balb/c female mice were inoculated with 4T1 mouse breast cancer cells at mammary fat pads. At day 20 after cell inoculation mice were subjected to PET analysis for metastases detection. White arrows denote metastatic foci at the spinal cord. B, Balb/c female from A were either left untreated (Control), or were treated with T12 in drinking water from day 20. At day 35 blood was seeded in the presence of 6-thioguanine and circulating 4T1 cells selected and further cultured. Shown are phase contrast images of the resulting cultures acquired with an inverted microscope. […] C, circulating 4T1 cells recovered as in B and 4T1 cells were cultured in standard 2D cultures and subjected to RNA extraction, and RNA samples were analyzed by RT-qPCR. Shown are the relative quantities (RQ) of the indicated mRNAs of circulating 4T1 cells using levels from 4T1 cells as reference. […] Dead cells in culture media were quantified by measuring cell size using an automated cell counter (Moxi Z, Orflo). […] E, circulating 4T1 cells recovered as in B or 4T1 cells were cultured in ultra-low binding plates and treated with the indicated concentrations of T12 for 9 days, cells were lysed and analyzed by Western blot using antibodies specific for activated caspase 3. The levels of GAPDH were determined for loading control purposes. […]

In the case of `COc1ccc(-c2ccc(-c3cccc(C)c3)c(C)c2)c(CCC(=O)O)c1` [T12, 3-[4″-methoxy-3,2′-dimethyl-(1,1′;4′,1″)terphenyl-2″-yl] propionic acid], the “sensitivity to T12: dead cells and activated caspase 3” value was “little effect on 4T1 cells”.
